PubChem BioAssay AID330 (DTP/NCI, 2004)
Values joined by “and” are separate entries in the source; they are usually repeats but may differ in a detail not shown here. Equal values may be shown once. Toxic doses and inconclusive results are not listed. How the source made its calls: active means survival T/C of 150% or more; inactive means T/C below 125% in these data. Square brackets hold non-standard residues; d marks the D form. Peptide text beside a SMILES is read from it. * marks the point of attachment. Nle = CCCC[CH](N)C(=O)O; Cbz = O=C(OCc1ccccc1)*

Tested on: P388 leukemia ip, CD2F1 mice, survival T/C
Assay: NCI In Vivo Anticancer Drug Screen. Data for tumor model P388 Leukemia (intraperitoneal) in CD2F1 (CDF1) mice
Conditions: endpoint: median survival time, higher = longer survival
Method in brief: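 Mice carrying the transplanted tumor received test compound or vehicle. Survival was recorded in each group, and the value is the treated-group measurement divided by that of the vehicle-treated control group.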

[1] = dose: 50.0 mg/kg/injection, schedule: Q01DX009 (ip), vehicle: saline with Tween-80
[2] = dose: 60.0 mg/kg/injection, schedule: Q01DX005 (ip), vehicle: Klucel (hydroxypropylcellulose) (HPC)
[3] = dose: 120.0 mg/kg/injection, schedule: Q01DX005 (ip), vehicle: Klucel (hydroxypropylcellulose) (HPC)
[4] = dose: 240.0 mg/kg/injection, schedule: Q01DX005 (ip), vehicle: Klucel (hydroxypropylcellulose) (HPC)
[5] = dose: 50.0 mg/kg/injection, schedule: Q01DX005 (ip), vehicle: Klucel (hydroxypropylcellulose) (HPC)
[6] = dose: 100.0 mg/kg/injection, schedule: Q01DX005 (ip), vehicle: Klucel (hydroxypropylcellulose) (HPC)
[7] = dose: 200.0 mg/kg/injection, schedule: Q01DX005 (ip), vehicle: Klucel (hydroxypropylcellulose) (HPC)
[8] = dose: 12.5 mg/kg/injection, schedule: Q01DX005 (ip), vehicle: Klucel (hydroxypropylcellulose) (HPC)
[9] = dose: 25.0 mg/kg/injection, schedule: Q01DX005 (ip), vehicle: Klucel (hydroxypropylcellulose) (HPC)
[10] = dose: 60.0 mg/kg/injection, schedule: Q01DX005 (ip), vehicle: saline with Tween-80
[11] = dose: 120.0 mg/kg/injection, schedule: Q01DX005 (ip), vehicle: saline with Tween-80
[12] = dose: 240.0 mg/kg/injection, schedule: Q01DX005 (ip), vehicle: saline with Tween-80
[13] = dose: 50.0 mg/kg/injection, schedule: Q01DX009 (ip), vehicle: saline
[14] = dose: 100.0 mg/kg/injection, schedule: Q01DX009 (ip), vehicle: saline
[15] = dose: 200.0 mg/kg/injection, schedule: Q01DX009 (ip), vehicle: saline
[16] = dose: 3.12 mg/kg/injection, schedule: Q01DX005 (ip), vehicle: Klucel (hydroxypropylcellulose) (HPC)
[17] = dose: 6.25 mg/kg/injection, schedule: Q01DX005 (ip), vehicle: Klucel (hydroxypropylcellulose) (HPC)

Measured: T/C

[O-]/[N+](=C\c1ccccc1)CC1(O)CCCCC1
inactive: [1] 90 % of control | dose: 100.0 mg/kg/injection, schedule: Q01DX009 (ip), vehicle: saline with Tween-80 88 % of control | dose: 200.0 mg/kg/injection, schedule: Q01DX009 (ip), vehicle: saline with Tween-80 99 % of control

O=C1CC(O)C2C(=O)c3c(c(Cl)c4ccccc4c3O)C(=O)C2C1 (centres undefined)
inactive: [2] 94 % of control | [3] 94 % of control | [4] 93 % of control

CC(C)CC(NC(=O)c1cccnc1)C(=O)O (centres undefined)
inactive: [5] 104 % of control | [6] 99 % of control | [7] 93 % of control

O=C(N/N=C/c1ccco1)C(=O)Nc1cccc(C(F)(F)F)c1
inactive: [8] 95 % of control | [9] 89 % of control | [5] 88 % of control and 95 % of control

O=C(O)CC1(C(=O)O)CC2C=CC1C2 (centres undefined)
inactive: [10] 104 % of control | [11] 91 % of control | [12] 91 % of control

COc1ccc(N=C2SCC(=O)N2NC(=O)CN2C(=O)c3ccccc3C2=O)cc1
inactive: dose: 100.0 mg/kg/injection, schedule: Q01DX001 (ip), vehicle: saline with Tween-80 99 % of control | dose: 200.0 mg/kg/injection, schedule: Q01DX001 (ip), vehicle: saline with Tween-80 97 % of control | dose: 400.0 mg/kg/injection, schedule: Q01DX001 (ip), vehicle: saline with Tween-80 104 % of control

Cc1ccc2cccnc2c1NCCCCCNC(C)C
inactive: dose: 12.5 mg/kg/injection, schedule: Q01DX005 (ip), vehicle: saline with Tween-80 97 % of control | dose: 25.0 mg/kg/injection, schedule: Q01DX005 (ip), vehicle: saline with Tween-80 100 % of control | dose: 50.0 mg/kg/injection, schedule: Q01DX005 (ip), vehicle: saline with Tween-80 100 % of control and 97 % of control

CCOC(=O)c1n[nH]nc1Nc1cncc(Nc2n[nH]nc2C(=O)OCC)n1
inactive: [2] 102 % of control | [3] 97 % of control | [4] 97 % of control

CN(C)CCSc1sc(N)nc1-c1ccccc1
inactive: [13] 100 % of control | [14] 98 % of control | [15] 114 % of control

C=CCOc1ccccc1C(=O)NC(O)(C(F)(F)F)C(F)(F)F
inactive: dose: 50.0 mg/kg/injection, schedule: Q04DX002 (ip), vehicle: suspension in saline 100 % of control | dose: 100.0 mg/kg/injection, schedule: Q04DX002 (ip), vehicle: suspension in saline 104 % of control | dose: 200.0 mg/kg/injection, schedule: Q04DX002 (ip), vehicle: suspension in saline 98 % of control

CCCCC(NC(=O)OCc1ccccc1)C(=O)NC(C(=O)O)C(C)C (centres undefined) (Cbz-[Nle]-Val-OH; configuration not given here)
inactive: [5] 99 % of control | [6] 111 % of control | [7] 104 % of control

Nc1[nH]c(=S)ncc1-c1ccc(Cl)c(Cl)c1
inactive: [10] 94 % of control | [11] 93 % of control | [12] 88 % of control

CC(CC(=O)O)C(N)C(=O)O (centres undefined)
inactive: dose: 50.0 mg/kg/injection, schedule: Q01DX005 (ip), vehicle: saline 96 % of control | [13] 92 % of control | dose: 100.0 mg/kg/injection, schedule: Q01DX005 (ip), vehicle: saline 95 % of control | [14] 91 % of control | dose: 200.0 mg/kg/injection, schedule: Q01DX005 (ip), vehicle: saline 101 % of control | [15] 92 % of control

O=C1OCCCOC(=O)c2cc(ccc2O)OCC#CC#CCOc2ccc(O)c1c2
inactive: [10] 92 % of control | [11] 97 % of control | [12] 97 % of control

COc1nc(NC2OC(CO)C(O)C2O)cc(=O)n1C (centres undefined)
inactive: [10] 93 % of control | [11] 94 % of control

CCN=C(Nc1cccc(C2=NCCN2)c1)c1ccc(C(=NCC)Nc2cccc(C3=NCCN3)c2)cc1
inactive: dose: 1.56 mg/kg/injection, schedule: Q01DX005 (ip), vehicle: Klucel (hydroxypropylcellulose) (HPC) 100 % of control | [16] 99 % of control | [17] 109 % of control | [8] 109 % of control

CSCCC(NC(=O)CNC(=O)OCc1ccccc1)C(=O)O (centres undefined)
inactive: dose: 25.0 mg/kg/injection, schedule: Q01DX009 (ip), vehicle: Klucel (hydroxypropylcellulose) (HPC) 94 % of control | dose: 50.0 mg/kg/injection, schedule: Q01DX009 (ip), vehicle: Klucel (hydroxypropylcellulose) (HPC) 95 % of control | dose: 100.0 mg/kg/injection, schedule: Q01DX009 (ip), vehicle: Klucel (hydroxypropylcellulose) (HPC) 100 % of control | dose: 200.0 mg/kg/injection, schedule: Q01DX009 (ip), vehicle: Klucel (hydroxypropylcellulose) (HPC) 93 % of control | dose: 400.0 mg/kg/injection, schedule: Q01DX009 (ip), vehicle: Klucel (hydroxypropylcellulose) (HPC) 87 % of control

CC(=O)N1CN(C(C)=O)CN(C(C)=O)C1
inactive: dose: 60.0 mg/kg/injection, schedule: Q01DX005 (ip), vehicle: saline 94 % of control | dose: 120.0 mg/kg/injection, schedule: Q01DX005 (ip), vehicle: saline 94 % of control | dose: 240.0 mg/kg/injection, schedule: Q01DX005 (ip), vehicle: saline 100 % of control

CC(C)c1ccc(/C=C/c2ccc(N(C)C)cc2)cc1
inactive: dose: 50.0 mg/kg/injection, schedule: Q01DX009 (sc), vehicle: olive oil, sesame oil, peanut oil 100 % of control | dose: 100.0 mg/kg/injection, schedule: Q01DX009 (sc), vehicle: olive oil, sesame oil, peanut oil 100 % of control | dose: 200.0 mg/kg/injection, schedule: Q01DX009 (sc), vehicle: olive oil, sesame oil, peanut oil 97 % of control

O=[N+]([O-])c1ccc(NS(=O)(=O)c2cccs2)c([N+](=O)[O-])c1
inactive: dose: 12.5 mg/kg/injection, schedule: Q01DX009 (ip), vehicle: saline with Tween-80 105 % of control | dose: 25.0 mg/kg/injection, schedule: Q01DX009 (ip), vehicle: saline with Tween-80 103 % of control | [1] 108 % of control

CCN(CC)CCNc1ncnc(N)c1C(=C(C)C)c1ccc(Cl)cc1
inactive: [1] 87 % of control

CCC1N=C(N)N=C(N)N1c1ccc(Cl)c(Cl)c1 (centres undefined)
inactive: [16] 104 % of control and 96 % of control | [17] 102 % of control and 105 % of control and 107 % of control | [8] 113 % of control and 114 % of control and 97 % of control | [9] 111 % of control and 114 % of control

CCOC(=O)c1ccc(NC(=O)NC2=NCCS2)cc1
inactive: dose: 12.5 mg/kg/injection, schedule: Q01DX009 (ip), vehicle: distilled water + Tween-80 96 % of control | dose: 25.0 mg/kg/injection, schedule: Q01DX009 (ip), vehicle: distilled water + Tween-80 93 % of control | dose: 50.0 mg/kg/injection, schedule: Q01DX009 (ip), vehicle: distilled water + Tween-80 93 % of control | dose: 100.0 mg/kg/injection, schedule: Q01DX009 (ip), vehicle: distilled water + Tween-80 96 % of control | dose: 200.0 mg/kg/injection, schedule: Q01DX009 (ip), vehicle: distilled water + Tween-80 87 % of control

CCCCCCC(C/C=C\CCCCCCCC(=O)OC)OC(C)=O (centres undefined)
inactive: dose: 100.0 mg/kg/injection, schedule: Q04DX003 (ip), vehicle: saline with Tween-80 95 % of control | dose: 200.0 mg/kg/injection, schedule: Q04DX003 (ip), vehicle: saline with Tween-80 100 % of control | dose: 400.0 mg/kg/injection, schedule: Q04DX003 (ip), vehicle: saline with Tween-80 104 % of control

CC(=O)Nc1cccc2c1C(=O)c1nccnc1C2=O
inactive: dose: 12.5 mg/kg/injection, schedule: Q04DX002 (ip), vehicle: Klucel + Tween-80 99 % of control | dose: 25.0 mg/kg/injection, schedule: Q04DX002 (ip), vehicle: Klucel + Tween-80 98 % of control | dose: 50.0 mg/kg/injection, schedule: Q04DX002 (ip), vehicle: Klucel + Tween-80 91 % of control

COc1cc(NS(=O)(=O)c2ccccc2)c2nc3ccc(Cl)cc3nc2c1
inactive: [2] 96 % of control | [3] 90 % of control | [4] 89 % of control
